Measurements taken from article PMC8455218, “A Cornflower Extract Containing N-Feruloylserotonin Reduces Inflammation in Human Skin by Neutralizing CCL17 and CCL22 and Inhibiting COX-2 and 5-LOX” (Mediators of Inflammation, 2021).

Biological target: T1, Macrophage-Derived Chemokine (MDC/CCL22) (Homo sapiens, UniProt O00626)
T1 sequence (O00626 25-93): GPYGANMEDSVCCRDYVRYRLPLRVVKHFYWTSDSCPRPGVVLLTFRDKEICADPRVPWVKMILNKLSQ
Test: TRIC-r calcium mobilization, Indo-1, EGFP-CCR4+Gqi5+ HEK cells
Assay type: cell-based

COc1cc(/C=C/C(=O)NCCc2c[nH]c3ccc(O)cc23)ccc1O [N-Feruloylserotonin]
IC50: 15 µM
